Reference: a melting point compilation (Tetko et al.; mined from patent text by program, amines drawn as free bases though some values may be those of a salt)

SMILES	melting point
Fc1ccc2sc(Cl)nc2c1	69 °C
Cc1c(C)c(N2CCN(c3ccnc(Cl)n3)CC2)c(C)c2c1OC(C)(C)C2	192 to 193 °C
CC(=O)NCC1CN(c2ccc(N3CCN(C4=NC(=O)CS4)CC3)c(F)c2)C(=O)O1 (stereo not given)	225 to 227 °C
O=C(NCc1cccnc1)C(F)(F)F	102 to 104 °C
CCN(CC)C(=CC1=NCCCC1)c1ccccc1	169 to 170 °C
CCCCC(=O)OC1(C(=O)CCl)CCC2C3CC(C)C4CC(=O)CCC4(C)C3(F)C(=O)CC21C (stereo not given)	67 to 72 °C
CCN(CC)SNc1ccc(Oc2ccc(C(F)(F)F)cc2Cl)cc1F	58 to 60 °C
c1cc(-n2cccn2)cc(-n2cnc3cc(-c4ccoc4)ccc32)c1	170 to 173 °C
Cc1c(CNC(=O)NO)c2cc(OCc3ccc4ccccc4n3)ccc2n1Cc1ccc(Cl)cc1	184 to 186 °C
COc1ccc(-c2snnc2-c2ccccc2)cc1	56.5 to 58 °C
CCOP(=O)(Cc1ccc(NC(=O)CCc2cnoc2-c2ccc(Cl)cc2)cc1)OCC	138 to 139 °C
COc1ccc2c(c1OC)C(=O)c1c-2c(N2CCNCC2)nc2ccc(Cl)cc12	168 to 169 °C
CS(=O)(=O)c1ccc(-c2c(-c3ccccc3)nc3sccn23)cc1	190 to 192 °C
CS(=O)(=O)c1ccc(-c2c(-c3ccccc3)sc3ccccc23)cc1	173 to 174 °C
Cc1c(-c2ccc(-c3ccccc3F)cc2)nc2ccc(F)cc2c1C(=O)O	315 to 317 °C
CCOC(=O)CCNc1ncccc1NC(=O)c1ccc(Cl)cc1	124 to 125 °C
CC(=O)N1CCCc2cc(CO)ccc21	95 to 106 °C
COc1ccc(CC(C)=O)cc1S(=O)(=O)Cl	80 to 81 °C
Cc1nc([C@H](Cc2ccccn2)N(C=O)c2cc3ccccc3[nH]2)n(C)c1-c1ccc(-n2ccnc2)cc1	156 to 157 °C
CC(C)[C@@H]1C[C@@H]([C@H](C[C@H](C(=O)N2C(=O)OC[C@@H]2Cc2ccccc2)C(C)C)N=[N+]=[N-])OC1=O	102 to 103 °C
CCOC(=O)c1ncc2[nH]c3cccc(Oc4ccc([N+](=O)[O-])cc4)c3c2c1COC	231 to 232 °C
N#Cc1ncccc1-c1nc2cccnc2o1	129 to 133 °C
O=C(Nc1ccc(C(F)(F)F)cc1)OCC1(COC(=O)Nc2ccc(C(F)(F)F)cc2)CSc2ccccc2C1=O	76 to 82 °C
CCCn1c(Cl)nc2ccc(I)cc2c1=O	98 to 100 °C
CN1CCc2nc(C(=O)N[C@@H]3C[C@@H](C(=O)O)CC[C@H]3NC(=O)c3cc4cc(Cl)ccc4[nH]3)sc2C1	234 to 236 °C

SMILES	melting point
CC(C)CN(CC(=O)O)S(=O)(=O)c1ccc(N2CCC(c3ccccc3)CC2)cc1	140 to 143 °C
CN1CC=C(c2cc3ccccc3c(=O)[nH]2)CC1	222 to 223 °C
CC(=O)Nc1ccc(C#CCCN2CC=C(c3ccccc3)CC2)cn1	169 to 170 °C
Cc1ccccc1C(=O)OCC1OC(N2CN(C)C(=O)NC2=O)CC1OC(=O)c1ccccc1C (stereo not given)	184 to 185 °C
Cc1nc(C)c2c(n1)N(Cc1ccc(-c3ccccc3-c3nnnn3C(c3ccccc3)(c3ccccc3)c3ccccc3)cc1)C(=O)CC2	160 to 161 °C
CCCCC/C(=C\c1ccccc1)CNc1cccc(-c2ccnc3c(C(=O)c4cccs4)cnn23)c1	110 to 112 °C
O=C(O)Cn1c(=O)c(=O)n(O)c2ccc(Cl)cc21	280 to 282 °C
C[C@@H](c1ccccc1)n1c(O)nc2c(N)nc3cccnc3c21	241 to 243 °C
CCC(C)(C)c1ccc(OCCCC(=O)Nc2ccc(Cl)c(NC(=O)CC(=O)C(C)(C)Sc3ccccc3)c2)c(C(C)(C)CC)c1	144 to 145 °C
C=COCCONC(=O)c1cc(Cl)c(F)c(F)c1Nc1ccc(I)cc1F	119 to 120 °C
O=Cc1cnc(-c2ccc(C(CC3CCOCC3)c3ccc(S(=O)(=O)C4CC4)cc3)[nH]2)s1 (stereo not given)	175 to 176 °C
COc1ccc(CONC(=O)[C@@H](C(C)C)N(Cc2cccnc2)S(=O)(=O)c2ccc(OC)cc2)cc1	45 to 53 °C
COc1ccccc1OCCNCCCc1c[nH]c2ccccc12	101 to 102 °C
CCOC(=O)C1=C(C)NN=C(CC)C1c1cccc(OC)c1 (stereo not given)	89 °C
COC(=O)c1cccc(Nc2nccc(-c3sc(N)nc3-c3ccccc3)n2)c1	223 to 225 °C
O=C(c1ccccc1)C(O)Cc1cccc(O)c1 (stereo not given)	118 to 119 °C
Cc1oc(-c2ccccc2)nc1COc1cccc(/C=C/C=O)c1	103 to 104 °C
O=C(Nc1ccc(C[C@H](NS(=O)(=O)N2CCSCC2)C(=O)O)cc1)c1c(Cl)cncc1Cl	173 °C
CC(=O)C(C#N)c1ccccc1 (stereo not given)	> 215 °C
O=C(c1ccccc1Nc1ccncc1)N1CCCCC1	153 to 156 °C
O=c1ccn(CC(O)CO)c(C(OC2CCCCO2)c2ccccc2)c1OCc1ccccc1 (stereo not given)	190 to 206 °C
CCCOc1ccc(Cl)c2c(=O)c3ccccc3sc12	102 to 103 °C
COc1ccc(CCCN2C(=O)c3ccccc3C2=O)cc1OC	82 to 85 °C
COc1ccc(C(=O)Nc2cccc3[nH]ccc23)c(O)c1	190 °C
CN(C)C(=O)OCCn1nc(-c2cc(C(C)(C)C)c(O)c(C(C)(C)C)c2)c2cccnc21	99 to 101 °C

SMILES	melting point
CNC(=O)Oc1ccc(N=C(C)c2ccccc2O)c(C)c1	133 to 138 °C
CC(C)Cc1nnc2n1-c1ccc(Br)cc1C(c1ccccc1)=NC2	93 to 95 °C
CC(O)c1ccc2cc(S(N)(=O)=O)sc2c1 (stereo not given)	134 to 135 °C
C#Cc1ccc2c(c1)C(=O)N(c1ccc3c(c1)C=C3)C2=O	191 to 192 °C
Cc1ccc(-c2nc(Cl)cc(Cl)n2)cc1	84 to 85 °C
O=C(NCC1CC1)c1c(NC(=O)c2cc(C(F)(F)F)nn2-c2ncccc2Cl)c(Cl)cc2cn[nH]c12	> 250 °C
Cc1ccc(S(=O)(=O)Nc2cccc3c2Nc2ccc(O)cc2CO3)s1	184 to 188 °C
O=C(O)CC1(c2ccc(Cl)cc2Cl)CNC(=O)C1 (stereo not given)	188 to 192 °C
O=C1c2cccc(Br)c2CN1Cc1cccc(C(F)(F)F)c1	119 to 120 °C
O=CN(O)C(CO)CS(=O)(=O)c1ccccc1Sc1ccc(Cl)cc1 (stereo not given)	148 to 150 °C
CC12CCC(C(=Cc3ccccc3[N+](=O)[O-])C1=O)C2(C)C (stereo not given)	118 °C
N#Cc1ncc(F)cc1OC1SCC(O)C(O)C1O (stereo not given)	94 °C
COc1ccc(C2CN(O)C3(C)CCCCC23)cc1OC (stereo not given)	147 to 149 °C
Nc1ncnc2c1nc(SCC(O)COc1ccccc1)n2C1OC(CO)C(O)C1O (stereo not given)	100 to 110 °C
O=c1[nH]c2cccc(OCCN3CCc4ccccc4C3)c2[nH]c1=O	> 250 °C
CC(C)(C)n1c(=O)c2c(-c3nc(C4CC4)no3)ncn2c2ccccc21	182 to 184 °C
CC(C)N1C(=O)NC(c2ccc3c(c2)CCO3)c2cc3c(cc21)OCO3 (stereo not given)	183 to 185 °C
Nc1c2c(nc3ccc(Cl)cc13)CCCC2=O	> 260 °C
NS(=O)(=O)c1ccc(Nc2ccccc2)c([N+](=O)[O-])c1	155 °C
Cn1c(=O)c2[nH]c(C3CCSC3)nc2n(C)c1=O (stereo not given)	217 to 219 °C
CC(=O)c1sc(Nc2cc[nH]n2)nc1C	224 to 227 °C
C#CCOc1ccc2c(c1)c(-c1ccc(C(C)C)cc1)nc(=O)n2Cc1cccc(O)c1	230 °C
CCCCNC(=O)NS(=O)(=O)c1ccccc1CCl	104 to 106 °C
CCOC(=O)c1c(C)cc2cnc(Cc3ccccc3)nc2c1C	77 to 79 °C
COc1cc(CN2Cc3cc(OC)c(O)cc3CC2C)cc(OC)c1 (stereo not given)	155 to 158 °C

SMILES	melting point
O=[N+]([O-])c1cc(C(F)(F)F)c(Cl)c([N+](=O)[O-])c1Nc1ncc(Cl)cc1Cl	64 to 65 °C
Cc1cc2c(cc1N1CC(C)C(C)C1)OC(=O)C2C (stereo not given)	104 to 105 °C
Cc1cccc(C)c1NC(=S)C1(C)CCc2c(C)c(O)c(C)c(C)c2O1 (stereo not given)	122 to 123 °C
COC(=O)C1N=C(c2ccccc2F)c2cc(Cl)ccc2-n2c1cnc2C (stereo not given)	203 to 205 °C
CCOC(=O)c1nc(-c2ccc(N3CCOCC3)cc2)[nH]c1-c1ccc(Cl)cc1	215 °C
CCOC(=NC(=O)c1ccc(-c2ccccc2)cc1)N1Cc2ccccc2-c2ccccc2C1	52 to 58 °C
CCCCc1nc2c(N)nc3ccccc3c2n1CCCCCCl	144 to 146 °C
O=Cc1ccc(Oc2ccc([N+](=O)[O-])cc2)cc1	101 to 104 °C
CSc1nnc2n1C=C(C)c1ccccc1C2	129 to 130 °C
COc1cccc(C2C(CO)CC(=O)N2c2ccccc2)c1 (stereo not given)	123 to 126 °C
CC(=O)c1ccc2sc3ccc(C(C)=O)cc3c2c1	207 to 210 °C
CN1Cc2c(C(=O)O)ncn2-c2cccnc2C1=O	292 to 295 °C
C=C1SC(=O)N(c2ccc3cc(-c4ccc(OC)c(C(C)(C)C)c4)ccc3c2)C1=O	274 to 276 °C
CC12CC(=O)C3C(CCC4CC(O)CCC43C)C1CCC2C(=O)COc1ccc(N)cc1 (stereo not given)	179 to 180 °C
COC(=O)c1cc(NC(=O)c2cc(Br)ccc2Cl)ccc1-n1nc(C(F)(F)F)cc1C(F)(F)F	75 to 76 °C
CNCc1ccc(S(C)(=O)=O)c(S(=O)(=O)NC(C)(C)C)c1	76 to 78 °C
O=C(O)C1(CC#CBr)CCCCC1	98 °C
COc1ccc2nc(-c3cccc(C)c3)c(-c3ccnc(NC4CCCCC4)c3)n2n1	188 to 189 °C
COc1ccc(C(=O)C=CC(=O)O)cc1OC	174 to 175 °C
COc1ccc(NC(=O)C(=O)N2CCC(Cc3ccc(F)cc3)CC2)cc1	105 to 107 °C
COC(=O)Nc1ccc(Br)c(F)c1	121 to 122 °C
CN1C(=O)CC(C)(C)c2cc(C3(C)OCCO3)ccc21	81 to 83 °C
CN(C)CC(O)COc1ccc2c(c1)OC(C)(C)CC2c1cccc2ccccc12 (stereo not given)	123 to 125 °C
CC(C)C[C@@H](C(=O)O)N(C)C(=O)OC(C)(C)C	53 to 55 °C
Cc1n[nH]c(=O)n1-c1ccc(OC(F)(F)C(F)F)cc1	204 to 205 °C
